Assay results taken from PubChem BioAssay (NCI).
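Cells were grown in 96-well plates and exposed to each compound for 48 hours at five concentrations; endpoints were interpolated linearly between bracketing concentrations, or set to the highest concentration if not reached. Definition used: TGI = concentration required for complete inhibition of growth.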

Tests used:
Test in all cases: NCI-60 cell line screen, 48 h
[1] = tested on: A549 NSCLC
[2] = tested on: HCT-116 colon
[3] = tested on: UO-31 renal
[4] = tested on: SN12C renal
[5] = tested on: BT-549 breast
[6] = tested on: MDA-MB-231 breast
[7] = tested on: COLO 205 colon
[8] = tested on: NCI/ADR-RES ovarian
[9] = tested on: OVCAR-5 ovarian
[10] = tested on: T-47D breast
[11] = tested on: HCT-15 colon
[12] = tested on: OVCAR-8 ovarian
[13] = tested on: MOLT-4 leukemia
[14] = tested on: NCI-H460 lung
[15] = tested on: SF-295 CNS
[16] = tested on: NCI-H522 lung
[17] = tested on: RXF 393 renal
[18] = tested on: RPMI-8226 leukemia
[19] = tested on: HCC-2998 colon
[20] = tested on: SR leukemia

SMILES	TGI [1]	TGI [2]	TGI [3]	TGI [4]	TGI [5]	TGI [6]	TGI [7]	TGI [8]	TGI [9]	TGI [10]	TGI [11]	TGI [12]	TGI [13]	TGI [14]	TGI [15]	TGI [16]	TGI [17]	TGI [18]	TGI [19]	TGI [20]
Brc1ccc(-c2nc(-c3ccc(Br)cc3)n(-c3ccccc3)n2)cc1	> 100 µM	> 100 µM	> 100 µM	> 100 µM	> 100 µM	> 100 µM	57.5 µM	> 100 µM	> 100 µM	> 100 µM	> 100 µM	> 100 µM	> 100 µM	> 100 µM	> 100 µM	> 100 µM				
CC(=O)N1c2ccccc2[C@H]2CCc3c([nH]c4ccccc34)[C@H]21	67.3 µM	11.4 µM	67.6 µM	27.5 µM	30 µM	31.5 µM	27.6 µM	> 100 µM	> 100 µM	96.9 µM	31.6 µM	> 100 µM	53.1 µM	23.3 µM	74.4 µM	51.3 µM	28.4 µM	43.5 µM		
CC1=C2CC(C)(C)CC(=O)C2(C)CCC1=O (configuration not stated)	> 100 µM	> 100 µM	> 100 µM	> 100 µM	> 100 µM	> 100 µM	> 100 µM	> 100 µM	> 100 µM	> 100 µM	> 100 µM	> 100 µM	> 100 µM	> 100 µM	> 100 µM	> 100 µM		13.8 µM	> 100 µM	> 100 µM
CSC1(Cc2ccccn2)C(=O)Nc2cccc([N+](=O)[O-])c21 (configuration not stated)	> 100 µM	> 100 µM	> 100 µM	> 100 µM	> 100 µM	> 100 µM	> 100 µM	> 100 µM	> 100 µM	> 100 µM	> 100 µM	> 100 µM	> 100 µM	> 100 µM	> 100 µM	> 100 µM		> 100 µM	> 100 µM	> 100 µM
Cc1cc(OC(=O)Nc2ccc(Cl)cc2)ccc1C(=S)Nc1ccccc1	> 100 µM	> 100 µM	> 100 µM	> 100 µM	> 100 µM		> 100 µM	> 100 µM	> 100 µM	> 100 µM	> 100 µM	> 100 µM	> 100 µM	> 100 µM	> 100 µM	> 100 µM		> 100 µM	> 100 µM	> 100 µM
Nc1ncc(Sc2ccccc2C(=O)O)s1	> 100 µM	> 100 µM	> 100 µM	> 100 µM	> 100 µM	> 100 µM	> 100 µM	> 100 µM	> 100 µM	> 100 µM	> 100 µM	> 100 µM	> 100 µM	> 100 µM	> 100 µM		> 100 µM	> 100 µM		> 100 µM
CC(=O)c1sc2c(c1O)c(=O)n(-c1ccccc1)c(=S)n2-c1ccccc1	> 100 µM		> 100 µM	> 100 µM	> 100 µM	> 100 µM	> 100 µM		> 100 µM	> 100 µM	> 100 µM	> 100 µM	> 100 µM	> 100 µM	> 100 µM	> 100 µM	> 100 µM	> 100 µM	> 100 µM	
COc1ccc(/C=N/n2c(Cc3ccccc3)n[nH]c2=O)cc1	> 100 µM	> 100 µM	> 100 µM	> 100 µM	> 100 µM	> 100 µM	> 100 µM	> 100 µM	> 100 µM	> 100 µM	> 100 µM	> 100 µM	> 100 µM	> 100 µM	> 100 µM			> 100 µM	> 100 µM	
Cn1c(=O)n2n(c1=O)C(S(=O)c1ccccc1)C2 (configuration not stated)	> 100 µM	> 100 µM	> 100 µM	> 100 µM	> 100 µM	> 100 µM	> 100 µM	> 100 µM	> 100 µM		> 100 µM	> 100 µM	> 100 µM	> 100 µM	> 100 µM	> 100 µM	> 100 µM	> 100 µM	> 100 µM	> 100 µM
O=S(=O)(O)c1ccc2c(N=Nc3c(O)ccc4ccccc34)cccc2c1	> 100 µM	> 100 µM	> 100 µM	> 100 µM	> 100 µM	> 100 µM	> 100 µM	> 100 µM	> 100 µM	> 100 µM	> 100 µM	> 100 µM		> 100 µM	> 100 µM	> 100 µM	> 100 µM	> 100 µM		> 100 µM
Cc1cc(C)nc(NC(=S)Nc2ccc(Cl)cc2)c1	> 100 µM	> 100 µM	> 100 µM	> 100 µM	> 100 µM	> 100 µM	> 100 µM	> 100 µM	> 100 µM	> 100 µM	> 100 µM	71.5 µM	> 100 µM	> 100 µM	> 100 µM	39.1 µM	> 100 µM	> 100 µM		> 100 µM
CC1=NNC(=O)[C@H]2[C@H]1CCC1[C@@H]2CC[C@]2(C)[C@@H](O)CC[C@@H]12 (some centres not stated)	> 100 µM	> 100 µM	> 100 µM	> 100 µM	> 100 µM	> 100 µM	> 100 µM	> 100 µM	> 100 µM	> 100 µM	> 100 µM	> 100 µM	> 100 µM	> 100 µM	> 100 µM	> 100 µM	> 100 µM	> 100 µM	> 100 µM	
